We go through three compounds from patent US9499488B2, “Vitamin D receptor agonists and uses thereof” (Beth Israel Deaconess Medical Center, Inc., priority 2011, dated 2016).

The structures appear in SMILES notation.

Data set [1] in a line: Inhibition of hyperparathyroidism: serum PTH in 1α-hydroxylase knock out mice. In kind it is in vivo. The settings on record: 0.6 μg/kg three times a week; 1α-OH KO mice; serum PTH ELISA. An excerpt: We performed long-term (7 days) in vivo experiments comparing the parathyroid hormone (PTH) levels following administration of compound 10 (aka VDRA) to an equivalent dose of paricalcitol (PC), a VDR agonist used to treat secondary hyperparathyroidism.
For this study, we used 1α-hydroxylase (1α-OH) knock out (KO) mice, which lack 1α-OH, an enzyme that converts 25(OH)VitD3 to the hormonally active form, 1,25-dihydroxyvitamin D3 (1,25(OH)2VitD3). These mice are designed to have a low vitamin D level at baseline and are hypocalcemic.
We administered 0.6 μg/kg of compound 10 or paricalcitol three times a week (Mon, Wed, Fri) for three weeks. Serum PTH level was measured using a PTH (intact, mouse) ELISA immunoassay (Alpco, Salem, Mass.).

The subject of data set [2] is adult rat cardiomyocytes (ARCMs). As to the kind of experiment: Phenylephrine-induced hypertrophy in adult rat cardiomyocytes in vitro (ANP level). In kind it is cell-based. The settings on record: pre-treated 24 hours, then PE (100 μM) for 48 hours. As for the experimental part:
We used adult rat cardiomyocytes (ARCMs) in these studies because heart failure is predominantly a disease of the adult heart. ARCM cultures were prepared from the hearts of female Sprague-Dawley rats by enzymatic dissociation using 0.3% collagenase. Each heart yields about 3-4×10^6 viable ventricular cardiomyocytes. Freshly isolated adult cardiomyocyte cultures contain >90% rod-shaped myocytes and less than 1% of the cells are non-myocytes. The cells were used within 24 hours of plating.
We examined how the response of cardiomyocytes to specific hypertrophic stimulus, phenylephrine (PE) is modulated by pretreatment with compound 10 as compared to known activated vitamin D analog, paricalcitol (PC). In this experiment, ARCM was pre-treated with vehicle, compound 10 (different doses) or paricalcitol ([…]) for 24 hours. The cells were then exposed to PE (100 μM) or vehicle for 48 hours. After exposing the cells to hypertrophic stimulation for 48 hours, they were collected and analyzed for several well-established parameters of cardiac hypertrophy, such as tissue atrial natriuretic peptide (ANP) level.

A short description of data set [3]: Calcemic effects: serum ionized calcium in 1α-hydroxylase knock out mice. In kind it is in vivo. The settings on record: 1α-OH KO mice; for increase in serum calcium level compared to the vehicle, long term: 0.6 μg/kg for one week (three administrations); for increase in serum calcium level compared to the vehicle, short term: 24 hours after administration, 0.60 and 3.0 μg/kg doses. As for the experimental part:
We performed short-term (24 hours) and long-term (7 days) in vivo experiments comparing the calcemic effect of compound 10 (aka VDRA) to an equivalent dose of calcitriol.
For this study, we used 1α-hydroxylase (1α-OH) knock out (KO) mice, which lack 1α-OH, an enzyme that converts 25(OH)VitD3 to the hormonally active form, 1,25-dihydroxyvitamin D3 (1,25(OH)2VitD3) or calcitriol. These mice are designed to have a low vitamin D level at baseline and are hypocalcemic.
For the short term experiment, we administered 0.6 μg/kg (therapeutic dose) and 3 μg/kg (supratherapeutic dose) of vehicle, calcitriol or compound 10, and then measured serum calcium level 24 hours after administration.
For the long-term experiment, we administered 0.6 μg/kg of vehicle, calcitriol or compound 10 for one week. We administered the drugs on Wednesday, Friday, and Monday, and measured serum calcium level on the following Tuesday.
Serum ionized calcium levels were measured using clinical grade iSTAT system (Abbott laboratories).

The nature of data set [4]: Phenylephrine (PE) induced cardiac hypertrophy in mice. In kind it is in vivo. The settings on record: PE 30 mg/kg/day via osmotic pump 7 days; compound 60 ng/kg 3×/week intraperitoneally. As for the experimental part:
FIGS. 5A-5C are bar graphs depicting the anti-hypertrophic potential of compound 10 (aka VDRA) in phenylephrine (PE) induced cardiac hypertrophy in mice (see Example 6). […] Mice were infused with PE (30 mg/kg/day) via osmotic pump for 7 days. In FIGS. 5A-5C (i) Con=control group with the same amount of saline infusion by osmotic pump; (ii) Vehicle or VDRA ([…]) were injected 3×/week intraperitoneally; (iii) total volume injected=50 μL/animal/injection; (iv) *=p<0.05 vs Control; (v) **=p<0.05 vs Vehicle; and (vi) N=4.
The anti-hypertrophic potential of compound 10 (aka VDRA) in phenylephrine (PE) induced cardiac hypertrophy in mice was evaluated in vivo. WT mice were infused with phenylephrine (PE) (30 mg/kg/day) via osmotic pump for 7 days. After 7 days, the mice were sacrificed, organ weighed, and hearts were obtained for mRNA processing. Vehicle or compound 10 (60 ng/kg) were injected 3×/week intraperitoneally (total volume injected=50 μL/animal/injection).

Data set [5] concerns the target T1, VDR (GAL4-DBD/VDR-LBD fusion protein in HEK293T cells) (Homo sapiens, UniProt P11473).
T1 construct: the targeting construct (GAL4-DBD/VDR-LBD) fusion protein engineered in a HEK293T cell line containing 7XUAS-bla; host or cells: GeneBLAzer VDR-UAS-bla HEK 293T cells
T1 sequence (P11473 127-423 limits assumed): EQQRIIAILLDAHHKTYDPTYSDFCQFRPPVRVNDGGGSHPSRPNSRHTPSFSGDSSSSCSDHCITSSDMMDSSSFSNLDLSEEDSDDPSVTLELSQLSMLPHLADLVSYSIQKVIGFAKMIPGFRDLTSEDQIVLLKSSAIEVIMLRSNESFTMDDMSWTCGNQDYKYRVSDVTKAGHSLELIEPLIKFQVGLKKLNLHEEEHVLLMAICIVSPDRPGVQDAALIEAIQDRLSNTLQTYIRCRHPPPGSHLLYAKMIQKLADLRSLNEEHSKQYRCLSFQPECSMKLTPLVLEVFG
The data set can be described thus: GeneBLAzer cell-based VDR assay (VDR-UAS-bla HEK 293T, beta-lactamase reporter). The settings on record: agonist or antagonist at VDR; compounds of formula (I) tested as mixture of diastereomers. An excerpt:
High throughput assay validation of the top ranked unique molecules from each of three PDB conformations on the basis of docking score (glide score+ionization state penalty). From this priority list 200 of the best ranked molecules, following ADMET evaluation, were purchased and subjected to binding assays. The compounds of formula (I) were obtained and tested as a mixture of diastereomers.
To determine which compounds identified by virtual screens are actually capable of regulating the transcriptional profile of VDR, we performed GeneBLAzer® Cell-Based VDR Assay (kit was bought from Invitrogen and assay performed as per instructions). Upon binding of a VDR agonist to the targeting construct (GAL4-DBD/VDR-LBD) fusion protein engineered in a HEK293T cell line containing 7XUAS-bla, a transcriptional cascade is initiated that produces β-lactamase (BLA). In the presence of the BLA LiveBLAzer™ substrate, cells expressing BLA will fluoresce blue (460 nm), while those not expressing BLA will fluoresce green (530 nm); higher […] ratio indicating the activation of VDR, whereas in presence of calcitriol (potent agonist) diminishing of this ratio indicates an antagonist behavior of the ligand. The agonist and antagonist abilities of CADD-selected compounds were determined in six-point concentration profile and compared with vehicle.
GeneBLAzer® VDR-UAS-bla HEK 293T cells were purchased from Invitrogen (Cat# K1700). The cells were cultured in growth medium in a humidified (37° C./5% CO2) incubator following the manufacture's instruction. Test compounds (ChemBridge, San Diego, Calif.) and Calcitriol (1α,25-Dihydroxyvitamin D3, Sigma) were dissolved in 100% DMSO(Sigma) at 1000-fold stock concentration and stored at −20° C., which were diluted in assay medium immediately prior to use. LiverBLAzer-FRET B/G loading kit was purchased from Invitrogen.
The GeneBLAzer® VDR-UAS-bla HEK 293T cell-based assay was used to screen 200 compounds for activity at the vitamin D receptor. The assay was run in triplicate following the manufacture's instruction. Briefly, 2×10^4 cells in 32 μl assay medium were added to each well of a 384-well black-wall assay plate (Corning Incorporated, Cat#3712). To each well was added 8 al of compound solution diluted in assay medium, the cells were incubated in a humidified (37° C./5% CO2) incubator for 5 hours. The cell-free wells (containing 32 μl assay medium only) and unstimulated cell wells were treated in parallel with the same concentration of DMSO in assay medium, which were used as background controls and blank controls, respectively. Calcitriol was used as a positive control. To each well was added 8 μl of LiverBLAzer-FRET B/G substrate mixture. The plate was covered with plate sealer and incubated at room temperature for 2 hours in the dark. Fluorescence emission was measured on SpectraMax plate reader at 460 nm and 530 nm with excitation set to 409 nm. After subtraction of background, the average value at 460 nm was divided by the average value at 530 nm to obtain the 460/530 ratio.

In the case of `C[C@H](/C=C/[C@H](C)C(C)(C)O)[C@H]1CC[C@H]2/C(=C/C=C3C[C@@H](O)C[C@H](O)C3)CCC[C@]12C` [paricalcitol, reference compound], the PTH levels entry in data set [1] is reported as “significantly reduced”.
For `CCSCCOC(=O)C1=C(C)NC2=C(C(=O)CC(c3ccc(Cl)cc3)C2)C1c1cccc(OC)c1` (centres unmarked) [Compound 10], the “anti-hypertrophic effect (ANP level)” value in data set [2] is given as “significant anti-hypertrophic effect”. Moreover, in data set [3], the “increase in serum calcium level compared to the vehicle, long term” value is recorded as “did not show any increase” and the “increase in serum calcium level compared to the vehicle, short term” value was “did not show significant increase”. Moreover, in data set [4], the “PE-induced ANF (atrial natriuretic factor) activation in left ventricular tissue (mRNA)” value was “effectively suppressed”, the “PE-induced heart weight/body weight (HW/BW) ratio” value was “effectively blocked” and the “PE-induced lung weight/BW (LW/BW) ratio” value is “effectively blocked”. For the same compound, the Activity entry in data set [5] is reported as “Agonist”. In addition, the PTH levels entry in data set [1] is listed as “significantly reduced”.
As to `C=C1/C(=C\C=C2/CCC[C@]3(C)[C@@H]([C@H](C)CCCC(C)(C)O)CC[C@@H]23)C[C@@H](O)C[C@@H]1O` [calcitriol, 1α,25-Dihydroxyvitamin D3, reference compound], in data set [3], the “increase in serum calcium level compared to the vehicle, long term” value is given as “about 45%” and the “increase in serum calcium level compared to the vehicle, short term” value is listed as “did not show significant increase”.
